# Experiment: Pharmacokinetics of deferiprone, single oral dose crossover study in subjects with mild renal insufficiency
# Type: in vivo, human
# Details: patients with mild to moderate renal insufficiency
# Method: Blood samples were collected immediately prior to and for a period of 48 hours after each dose and the concentrations of deferiprone determined.
smiles,measurement,value
"Cc1c(O)c(=O)ccn1C [deferiprone, 1,2-dimethyl-3-hydroxy-pyrid-4-one]",pharmacokinetic profile compared with patients with normal renal function,very similar to that reported with patients with normal renal function

# Source: US20060127315A1, “Methods of treating humans undergoing injection of a contrast agent” (SHIVA BIOMEDICAL, L.L.C., priority 2004, published 2006)
